From US20130172311A1, “Substituted heterocyclyl benzyl pyrazoles, and use thereof” (BAYER INTELLECTUAL PROPERTY GMBH, priority 2010, published 2013) come the findings set out here.

The test system of data set [1] is luciferase reporter under the control of an HIF-responsive sequence in HCT 116 cells. Description: HIF luciferase assay. The format is cell-based. To be noted: Homo sapiens; HCT 116 reporter cells, hypoxia chamber (1% O2), 24 h. The method, then:
HCT 116 cells were stably transfected with a plasmid which contained a luciferase reporter under the control of an HIF-responsive sequence. These cells were sown in microtitre plates [20 000 cells/cavity in RPMI 1640 medium with 10% foetal calf serum (FCS) and 100 μg/ml of hygromycin]. They were incubated overnight under standard conditions (5% CO2, 21% O2, 37° C., moistened). The following morning the cells were incubated with different concentrations of the test substances (0-10 μmol/l) in a hypoxia chamber (1% O2). After 24 h, Bright Glo reagent (Promega, Wis., USA) was added in accordance with the manufacturer's instructions, and after 5 min the luminescence was measured. Cells which were incubated under normoxia served as background controls.

Data set [2] is described as follows: Pharmacokinetic parameters after peroral administration in rats. The format is in vivo. The method, then: The substance to be examined was administered to animals (for example mice or rats) intravenously as a solution (for example in corresponding plasma with a small addition of DMSO or in a PEG/ethanol/water mixture), and peroral administration was effected as a solution (for example in Solutol/ethanol/water or PEG/ethanol/water mixtures) or as a suspension (e.g. in tylose), in each case via a gavage. After administration of the substance, blood was taken from the animals at fixed times. The blood was heparinized, then plasma was obtained therefrom by centrifugation. The substance was quantified analytically in the plasma via LC-MS/MS. From the plasma concentration/time plots determined in this way, using an internal standard and with the aid of a validated computer program, the pharmacokinetic parameters, such as AUC (area under the concentration/time curve), Cmax, (maximum plasma concentration), t1/2 (half life), VSS (distribution volume) and CL (clearance), and the absolute and relative bioavailability F and Frei (i.v./p.o. comparison or comparison of suspension to solution after p.o. administration), were calculated.
To determine the active ingredient release from a prodrug compound, the prodrug was administered either intravenously or perorally, as described above, and the concentrations both of the prodrug and of the active ingredient released were quantified in the processed plasma.
The substance to be examined was administered perorally to rats, in each case in amounts between 1 and 3 mg/kg as a solution in Solutol/ethanol/water (40:10:50 or 40:20:40). The kinetic parameters determined for Working Example 1 are shown below by way of example for the inventive compounds [AUCnorm=dose-normalized exposure (area under the concentration/time curve)]:
The second row in this table gives the pharmacokinetic parameters for Example 1, as obtained after peroral administration of the prodrug compound from Example 15 (1 mg/kg of crystalline substance as a tylose suspension in water).

Data set [3] is described as follows: pH-dependent hydrolysis stability. The format is physicochemical. Particulars: HPLC area %; for % Example 1 active ingredient: released from prodrug Example 15. On the procedure:
0.3 mg of the test substance (prodrug) was weighed into a 2 ml HPLC vial, and 0.6 ml of acetonitrile or acetonitrile/DMSO mixture (with up to 20 percent by volume of DMSO) was added. To dissolve the substance, the sample vessel was placed into an ultrasound bath for approx. 10 seconds. Subsequently, 1.0 ml of the particular aqueous buffer solution was added (commercially available buffer solutions of pH 2, 4, 6.5, 8 and 10) and the sample was treated again in the ultrasound bath. Over a period of 24 hours at 37° C., 5 μl of the sample solution were analysed by HPLC every hour for its content of unchanged prodrug or active ingredient released therefrom by hydrolysis. Quantification was effected via the area percentages of the corresponding HPLC peaks.

Data set [4] in a line: Plasma stability in vitro, rat plasma. The format is in vitro ADME. To be noted: 37°C. On the procedure:
(§1) 1 mg of the test substance (prodrug) was weighed into a 2 ml HPLC vial, and 1.5 ml of DMSO and 1 ml of water were added. To dissolve the substance, the sample vessel was placed into an ultrasound bath for approx. 10 seconds. 0.5 ml of rat plasma or human plasma at 37° C. was added to 0.5 ml of this solution. The sample was agitated and approx. 10 μl were taken for a first analysis (time t0). […] The sample was kept at 37° C. over the test period. Characterization and quantification were effected by HPLC.

The nature of data set [5]: Plasma stability in vitro, human plasma. The format is in vitro ADME. To be noted: 37°C. The method, then:
as §1

One may read the IC50 as the midpoint of a concentration-inhibition curve. Low readings indicate higher potency, high ones lower potency. Consider `Cc1cc(-c2nc(-c3ccc(OC(F)(F)F)cc3)no2)nn1Cc1cccc(N2CCC(C#N)CC2)c1` [Example 11, 1-{3-[(5-Methyl-3-{3-[4-(trifluoromethoxy)phenyl]-1,2,4-oxadiazol-5-yl}-1H-pyrazol-1-yl)methyl]phenyl}piperidine-4-carbonitrile], for which half-maximal inhibition in data set [1] (IC50) was put at 0.4 nM.
The term bioavailability denotes dose-corrected exposure relative to a reference, in per cent. Turning to `Cc1cc(-c2nc(-c3ccc(OC(F)(F)F)cc3)no2)nn1Cc1cccc(N2CC(O)C2)c1` [Example 1, 1-{3-[(5-Methyl-3-{3-[4-(trifluoromethoxy)phenyl]-1,2,4-oxadiazol-5-yl}-1H-pyrazol-1-yl)methyl]phenyl}azetidin-3-ol], the “AUCnorm (dose-normalized exposure)” value in data set [2] (p.o., 1-3 mg/kg, solution in Solutol/ethanol/water) came out at 0.43 kg·h/L. In data set [2] (p.o., prodrug Example 15, 1 mg/kg crystalline substance as tylose suspension in water), the “AUCnorm of Example 1 after administration of prodrug Example 15” value is 0.35 kg·h/L. Also, the bioavailability in data set [2] (rat, plasma, po, 1-3 mg/kg, solution in Solutol/ethanol/water, read-out: F (bioavailability)) turned out to be 68%. The compound further showed an IC50 in data set [1] of 0.7 nM. For the same compound, the “% Example 1 active ingredient” value is given as 6% in data set [3] (pH 2, 37°C, after 12 h); 9% in data set [3] (pH 4, 37°C, after 12 h); 3% in data set [3] (pH 6.5, 37°C, 0 h); 7% in data set [3] (pH 6.5, 37°C, 2 h); 10% in data set [3] (pH 6.5, 37°C, 4 h); 13% in data set [3] (pH 6.5, 37°C, 6 h). Also, the “% Example 1 active ingredient” value was 22% in data set [3] (pH 6.5, 37°C, 12 h); 35% in data set [3] (pH 6.5, 37°C, 24 h); 30% in data set [3] (pH 8, 37°C, after 12 h); 78% in data set [3] (pH 10, 37°C, after 12 h).
In data set [1], `Cc1cc(-c2nc(-c3ccc(C(C)(C)C(F)(F)F)cc3)no2)nn1Cc1cccc(N2CC(O)C2)c1` [Example 3, 1-{3-[(5-Methyl-3-{3-[4-(1,1,1-trifluoro-2-methylpropan-2-yl)phenyl]-1,2,4-oxadiazol-5-yl}-1H-pyrazol-1-yl)methyl]phenyl}azetidin-3-ol] returned an IC50 of 0.6 nM.
A word on the melting point: it is the temperature, or range, at which the solid turns liquid. For the compound `Cc1cc(-c2nc(-c3ccc(OC(F)(F)F)cc3)no2)nn1Cc1cccc(N2CC(OC(=O)CN(C)C)C2)c1` [Example 15, 1-{3-[(5-Methyl-3-{3-[4-(trifluoromethoxy)phenyl]-1,2,4-oxadiazol-5-yl}-1H-pyrazol-1-yl)methyl]phenyl}azetidin-3-yl N,N-dimethylglycinate], the melting point was 117 °C. Moreover, in data set [2] (p.o., 1 mg/kg as tylose suspension, all times examined), the “prodrug compound in plasma” value was “not detectable”. Moreover, in data set [4] (0 h), the “% Example 15 prodrug” value stood at 95%. Besides, the “% Example 15 prodrug” value in data set [4] (0.5 h) is on record as 87%. Moreover, the “% Example 15 prodrug” value in data set [4] (1 h) came to 80%. Further, in data set [4] (1.5 h), the “% Example 15 prodrug” value came to 72%. Moreover, the “% Example 15 prodrug” value in data set [4] (2 h) is reported as 69%. Also, in data set [4] (4 h), the “% Example 15 prodrug” value is on record as 52%. Also, the “% Example 15 prodrug” value in data set [3] (pH 2, 37°C, after 12 h) came out at 89%. Besides, the “% Example 15 prodrug” value in data set [3] (pH 4, 37°C, after 12 h) is recorded as 89%. The “% Example 15 prodrug” value in data set [3] (pH 6.5, 37°C, 0 h) turned out to be 94%. The “% Example 15 prodrug” value in data set [3] (pH 6.5, 37°C, 2 h) is 91%. In data set [3] (pH 6.5, 37°C, 4 h), the “% Example 15 prodrug” value was 87%. Moreover, the “% Example 15 prodrug” value in data set [3] (pH 6.5, 37°C, 6 h) was 84%. For the same compound, in data set [3] (pH 6.5, 37°C, 12 h), the “% Example 15 prodrug” value stood at 73%. The “% Example 15 prodrug” value in data set [3] (pH 6.5, 37°C, 24 h) is 56%. In addition, the “% Example 15 prodrug” value in data set [3] (pH 8, 37°C, after 12 h) was found to be 64%. In data set [3] (pH 10, 37°C, after 12 h), the “% Example 15 prodrug” value was found to be 0%. Besides, in data set [5] (0 h), the “% Example 15 prodrug” value stood at 97%. Also, the “% Example 15 prodrug” value in data set [5] (0.5 h) amounted to 96%. Further, the “% Example 15 prodrug” value in data set [5] (1 h) came to 93%. For the same compound, in data set [5] (1.5 h), the “% Example 15 prodrug” value came out at 91%. In data set [5] (2 h), the “% Example 15 prodrug” value is 89%. Moreover, in data set [5] (4 h), the “% Example 15 prodrug” value is 81%.
`Cc1cc(-c2nc(-c3ccc(C4(C(F)(F)F)CC4)cc3)no2)nn1Cc1cccc(N2CC(O)C2)c1` [Example 2, 1-(3-{[5-Methyl-3-(3-{4-[1-(trifluoromethyl)cyclopropyl]phenyl}-1,2,4-oxadiazol-5-yl)-1H-pyrazol-1-yl]methyl}phenyl)azetidin-3-ol] had an IC50 in data set [1] of 0.6 nM.
With `Cc1cc(-c2nc(-c3ccc(OC(F)(F)F)cc3)no2)nn1Cc1cccc(N2CCC(O)CC2)c1` [Example 8, 1-{3-[(5-Methyl-3-{3-[4-(trifluoromethoxy)phenyl]-1,2,4-oxadiazol-5-yl}-1H-pyrazol-1-yl)methyl]phenyl}piperidin-4-ol], the IC50 in data set [1] amounted to 0.6 nM.
Consider `Cc1cc(-c2nc(-c3ccc(C(C)(C)C(F)(F)F)cc3)no2)nn1Cc1cccc(N2CCC(O)CC2)c1` [Example 10, 1-{3-[(5-Methyl-3-{3-[4-(1,1,1-trifluoro-2-methylpropan-2-yl)phenyl]-1,2,4-oxadiazol-5-yl}-1H-pyrazol-1-yl)methyl]phenyl}piperidin-4-ol], for which half-maximal inhibition in data set [1] (IC50) required 0.4 nM.
In data set [1], `Cc1cc(-c2nc(-c3ccc(C4(C(F)(F)F)CC4)cc3)no2)nn1Cc1cccc(N2CCC(C#N)CC2)c1` [Example 12, 1-(3-{[5-Methyl-3-(3-{4-[1-(trifluoromethyl)cyclopropyl]phenyl}-1,2,4-oxadiazol-5-yl)-1H-pyrazol-1-yl]methyl}phenyl)piperidine-4-carbonitrile] registered an IC50 of 0.3 nM.
The same measure, in the same setting: under `Cc1cc(-c2nc(-c3ccc(SC(F)(F)F)cc3)no2)nn1Cc1cccc(N2CCC(O)CC2)c1` [Example 14, 1-(3-{[5-Methyl-3-(3-{4-[(trifluoromethyl)sulphanyl]phenyl}-1,2,4-oxadiazol-5-yl)-1H-pyrazol-1-yl]methyl}phenyl)piperidin-4-ol] stands 0.5 nM; under `Cc1cc(-c2nc(-c3ccc(C4(C(F)(F)F)CC4)cc3)no2)nn1Cc1cccc(N2CCC(O)CC2)c1` [Example 9, 1-(3-{[5-Methyl-3-(3-{4-[1-(trifluoromethyl)cyclopropyl]phenyl}-1,2,4-oxadiazol-5-yl)-1H-pyrazol-1-yl]methyl}phenyl)piperidin-4-ol], 0.5 nM.
Regarding `Cc1cc(-c2nc(-c3ccc(C(C)(C)C(F)(F)F)cc3)no2)nn1Cc1cccc(N2CCC(C#N)CC2)c1` [Example 13, 1-{3-[(5-Methyl-3-{3-[4-(1,1,1-trifluoro-2-methylpropan-2-yl)phenyl]-1,2,4-oxadiazol-5-yl}-1H-pyrazol-1-yl)methyl]phenyl}piperidine-4-carbonitrile], the IC50 in data set [1] amounted to 0.3 nM.
